Assay results taken from ChEMBL document CHEMBL1201862, “PubChem BioAssay data set” (2004).
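Results reflect a 48-hour exposure of cells in 96-well plates to compound at five concentrations. Abbreviation: GI50, concentration required for 50% inhibition of growth.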 The source made the active and inactive calls. No stated cut-off is given here; in the data, active = GI50 up to about 1.1 µM and inactive = higher.

How the values were obtained:
Assay in all cases: NCI-60 cell line screen, 48 h
UACC-62 = system: UACC-62
SK-MEL-5 = system: SK-MEL-5
HCT-15 = system: HCT-15
M14 = system: M14
KM12 = system: KM12
NCI-H522 = system: NCI-H522
OVCAR-4 = system: OVCAR-4
SF-295 = system: SF-295
786-0 = system: 786-0
SNB-19 = system: SNB-19
CCRF-CEM = system: CCRF-CEM
SK-MEL-2 = system: SK-MEL-2
HT-29 = system: HT-29
DU-145 = system: DU-145
MDA-N = system: MDA-N
OVCAR-5 = system: OVCAR-5
MCF7 = system: MCF7
HCC 2998 = system: HCC 2998
PC-3 = system: PC-3
SK-MEL-28 = system: SK-MEL-28
MDA-MB-435 = system: MDA-MB-435
EKVX = system: EKVX
UACC-257 = system: UACC-257
OVCAR-3 = system: OVCAR-3
SR = system: SR
LOX IMVI = system: LOX IMVI
NCI-H23 = system: NCI-H23
MOLT-4 = system: MOLT-4
UO-31 = system: UO-31
CAKI-1 = system: CAKI-1
IGROV-1 = system: IGROV-1
RPMI-8226 = system: RPMI-8226
U-251 = system: U-251
SNB-75 = system: SNB-75
K562 = system: K562
SF-539 = system: SF-539
OVCAR-8 = system: OVCAR-8
COLO 205 = system: COLO 205
NCI-H460 = system: NCI-H460
HOP-92 = system: HOP-92
RXF 393 = system: RXF 393
BT-549 = system: BT-549
SW-620 = system: SW-620
HL-60 = system: HL-60
NCI/ADR-RES = system: NCI/ADR-RES
T47D = system: T47D
SN12C = system: SN12C
MDA-MB-231 = system: MDA-MB-231
SF-268 = system: SF-268
ACHN = system: ACHN
HCT-116 = system: HCT-116
HOP-62 = system: HOP-62
TK-10 = system: TK-10
NCI-H226 = system: NCI-H226
Malme-3M = system: Malme-3M
A498 = system: A498
SK-OV-3 = system: SK-OV-3
A549 = system: A549

Measured: GI50

O=C(NN1C(=O)C=CC1=O)c1ccccc1Nc1ccccc1C(=O)NN1C(=O)C=CC1=O
inactive: UACC-62 > 100 µM | SK-MEL-5 > 100 µM | M14 > 100 µM | KM12 > 100 µM | NCI-H522 > 100 µM | OVCAR-4 > 100 µM | SF-295 > 100 µM | 786-0 > 100 µM | SNB-19 > 100 µM | CCRF-CEM > 100 µM | SK-MEL-2 > 100 µM | HT-29 > 100 µM | DU-145 > 100 µM | MDA-N > 100 µM | OVCAR-5 > 100 µM | MCF7 > 100 µM | HCC 2998 > 100 µM | PC-3 > 100 µM | SK-MEL-28 > 100 µM | MDA-MB-435 > 100 µM | EKVX > 100 µM | UACC-257 > 100 µM | OVCAR-3 > 100 µM | SR > 100 µM | LOX IMVI > 100 µM | NCI-H23 > 100 µM | MOLT-4 > 100 µM | UO-31 > 100 µM | CAKI-1 > 100 µM | IGROV-1 > 100 µM | RPMI-8226 > 100 µM | U-251 > 100 µM | SNB-75 > 100 µM | K562 > 100 µM | SF-539 > 100 µM | OVCAR-8 > 100 µM | COLO 205 > 100 µM | NCI-H460 > 100 µM | HOP-92 > 100 µM | RXF 393 > 100 µM | BT-549 > 100 µM | SW-620 > 100 µM | HL-60 > 100 µM | NCI/ADR-RES > 100 µM | T47D > 100 µM | SN12C > 100 µM | MDA-MB-231 > 100 µM | SF-268 > 100 µM | ACHN > 100 µM | HCT-116 > 100 µM | HOP-62 > 100 µM | TK-10 > 100 µM | NCI-H226 > 100 µM | Malme-3M > 100 µM
> 100 µM: HCT-15

CC1(C)C(=O)C2(N)CCC1C2 (configuration not stated)
inactive: UACC-62 > 100 µM | KM12 > 100 µM | OVCAR-4 > 100 µM | 786-0 > 100 µM | SNB-19 > 100 µM | CCRF-CEM > 100 µM | DU-145 > 100 µM | MDA-N > 100 µM | HCC 2998 > 100 µM | SK-MEL-28 > 100 µM | MDA-MB-435 > 100 µM | A498 > 10 µM | UACC-257 > 100 µM | SR > 100 µM | LOX IMVI > 100 µM | NCI-H23 > 100 µM | UO-31 > 100 µM | CAKI-1 > 100 µM | RPMI-8226 > 100 µM | U-251 > 100 µM | SNB-75 > 100 µM | OVCAR-8 > 100 µM | COLO 205 > 100 µM | NCI-H460 > 100 µM | HOP-92 > 100 µM | BT-549 > 100 µM | NCI/ADR-RES > 100 µM | T47D > 100 µM | SN12C > 100 µM | MDA-MB-231 > 100 µM | SF-268 > 100 µM | ACHN > 100 µM | HCT-116 > 100 µM | TK-10 > 100 µM | NCI-H226 > 100 µM
> 100 µM: HCT-15

O=C1CCCCC/C1=C\c1cccc([N+](=O)[O-])c1
inactive: UACC-62 22.5 µM | SK-MEL-5 18.4 µM | M14 26.5 µM | KM12 25 µM | SF-295 23.2 µM | 786-0 33.2 µM | SNB-19 38.6 µM | CCRF-CEM 12.2 µM | SK-MEL-2 29.6 µM | HT-29 37.2 µM | DU-145 48.2 µM | MDA-N 53.7 µM | OVCAR-5 46.2 µM | MCF7 48.3 µM | HCC 2998 21.2 µM | PC-3 34.3 µM | SK-MEL-28 38.1 µM | MDA-MB-435 32.7 µM | A498 > 100 µM | EKVX 33.7 µM | UACC-257 22.4 µM | OVCAR-3 28.8 µM | SR 11.6 µM | MOLT-4 15.5 µM | UO-31 27.7 µM | CAKI-1 36.1 µM | IGROV-1 19.4 µM | RPMI-8226 21.6 µM | U-251 27.4 µM | SNB-75 38.2 µM | K562 31.9 µM | SF-539 21.5 µM | OVCAR-8 33 µM | COLO 205 51.1 µM | NCI-H460 30.1 µM | RXF 393 28.7 µM | SK-OV-3 79.1 µM | BT-549 24.5 µM | A549 44.6 µM | SW-620 34.5 µM | HL-60 17.7 µM | NCI/ADR-RES 34.1 µM | T47D 36 µM | SN12C 45.7 µM | MDA-MB-231 23.8 µM | SF-268 18.5 µM | ACHN 33.3 µM | HCT-116 22.2 µM | HOP-62 38.9 µM | TK-10 33.7 µM | Malme-3M 28.5 µM
